What was measured:
Tyrosinase = biological target: T1, Tyrosinase (Agaricus bisporus, UniProt O42713)
T1 sequence (O42713 whole entry): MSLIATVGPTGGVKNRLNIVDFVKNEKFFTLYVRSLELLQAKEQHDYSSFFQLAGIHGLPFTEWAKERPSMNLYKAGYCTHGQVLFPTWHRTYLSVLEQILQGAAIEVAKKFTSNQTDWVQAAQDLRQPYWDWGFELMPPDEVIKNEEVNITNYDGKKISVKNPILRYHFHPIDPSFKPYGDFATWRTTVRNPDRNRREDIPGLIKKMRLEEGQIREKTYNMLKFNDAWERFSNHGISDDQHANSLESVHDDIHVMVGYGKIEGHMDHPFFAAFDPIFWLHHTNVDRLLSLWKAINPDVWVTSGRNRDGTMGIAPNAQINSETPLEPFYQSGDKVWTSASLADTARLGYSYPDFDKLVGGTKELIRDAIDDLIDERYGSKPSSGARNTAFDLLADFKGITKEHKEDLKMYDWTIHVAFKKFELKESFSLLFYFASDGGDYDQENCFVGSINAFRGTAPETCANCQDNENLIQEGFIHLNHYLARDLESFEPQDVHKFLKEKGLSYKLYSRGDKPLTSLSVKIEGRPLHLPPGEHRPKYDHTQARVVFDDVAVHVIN
Description: Inhibition of mushroom tyrosinase activity using L-tyrosine as substrate by spectrometric analysis

B16 [1] = assay: cells; conditions: Mus musculus, B16, 72 h, read-out: INH
Description: Inhibition of alpha-MSH -stimulated melanogenesis in mouse B16 cells assessed as melanin release at 10 uM after 72 hrs by spectrometric analysis

B16 [2] = assay: cells; conditions: Mus musculus, B16, 72 h
Description: Inhibition of alpha-MSH -stimulated melanogenesis in mouse B16 cells assessed as melanin release after 72 hrs by spectrometric analysis

| Compound | IC50 (Tyrosinase) | IC50 (B16 [2]) | inhibition at 10 µM (B16 [1]) |
| --- | --- | --- | --- |
| Cc1ccc(NC(=S)Nc2ccccc2)cc1 | > 100 µM | 6.3 µM | 79% |
| NC(=S)NCCc1ccccc1 | > 100 µM |  |  |
| Oc1ccc(N/C(S)=N/c2ccccc2)cc1 | > 100 µM | 20.7 µM | 24% |
| CC(C)(C)c1ccc(NC(N)=S)cc1 | 1.7 µM |  |  |
| CC(C)(C)c1ccccc1NC(N)=S | > 100 µM |  |  |
| CCc1ccccc1NC(N)=S | 27.1 µM |  |  |
| Cc1ccccc1NC(N)=S | 0.84 µM |  |  |
| Cc1cccc(NC(N)=S)c1 | 0.6 µM |  |  |
| COc1ccc(NC(S)=Nc2ccccc2)cc1 | > 100 µM | 8.2 µM | 59% |
| S=C1NCc2ccccc2N1 | > 100 µM |  |  |
| Cc1ccc2c(c1)CN(CCc1ccccc1)C(=S)N2 | > 100 µM |  |  |
| CCc1ccc(NC(N)=S)cc1 | 0.8 µM |  |  |
| NC(=S)NCCCc1ccccc1 | 64.8 µM |  |  |
| Cc1ccc(NC(N)=S)cc1 | 1.4 µM |  |  |

Continued, in another order:

| IC50 (Tyrosinase) | IC50 (B16 [2]) | Compound | inhibition at 10 µM (B16 [1]) |
| --- | --- | --- | --- |
| > 100 µM | 1.8 µM | S=C(NCCCc1ccccc1)Nc1ccccc1 | > 100% |
| > 100 µM | 2.2 µM | S=C(NCCc1ccccc1)Nc1ccccc1 | > 100% |
| > 100 µM | 2.4 µM | S=C(Nc1ccccc1)NC1CCCCC1 | > 100% |
| > 100 µM | 19.6 µM | CC(C)N(C(=S)Nc1ccccc1)C(C)C | 30% |
| > 100 µM | 4.7 µM | S=C(NCc1ccccc1)Nc1ccccc1 | 91% |
| > 100 µM | 35 µM | CNC(=S)Nc1ccccc1 | 30% |
| 25.4 µM |  | NC(=S)NCc1ccccc1 |  |
| > 100 µM | 3.4 µM | S=C(Nc1ccccc1)Nc1ccc(Cl)cc1 | > 100% |

— ChEMBL document CHEMBL1909585 (Bioorg Med Chem Lett, 2011)
